Assay results reported in US20260272888A1, “WOUND TREATMENT COMPOSITION” (OTSUKA PHARMACEUTICAL CO., LTD., priority 2022, published 2026).

Experiments:
[1] = tested on: normal human epidermal keratinocyte (NHEK); test: scratch assay of epidermic cells with compound solution or conditioned medium from skin fibroblasts; format: cell-based; conditions: conditioned medium from normal human dermal fibroblasts cultured 24 hours with compound, 18 hours culture
Description: The influence of the compound A on epidermic cells via a skin fibroblast was evaluated. As the epidermic cell and the skin fibroblast used in the evaluation system, a normal human epidermal keratinocyte (NHEK, Kurabo Industries Ltd.) and a normal human dermal fibroblast (NEDF, Kurabo Industries Ltd.) were used. As a reference compound, dexamethasone, which is an anti-inflammatory drug, was used.
Skin fibroblasts (1×10^5 cells/mL) suspended in Dulbecco's Modified Eagle Medium (DMEM) containing 10% (v/v) fetal bovine serum (FBS) were seeded at 1 mL/well in a 12 well plate coated with type I collagen, and cultured for 48 hours. After removal of the culture medium and washing with phosphate buffered saline (PBS), the compound solution was added. As the compound solution, a solution was used that was prepared by mixing dimethyl sulfoxide or a compound (the compound A or dexamethasone) dissolved in dimethyl sulfoxide with a normal human epidermal keratinocyte basal medium (HuMedia-KB2, Kurabo Industries Ltd.) (the final concentration of dimethyl sulfoxide was 0.1% [v/v]). After completion of the culture for 24 hours, the conditioned medium was collected.
Epidermic cells (6×10^5 cells/mL) suspended in HuMedia-KB2 were seeded at 100 μL/well in ImageLock 96-well Plate (Sartorius AG) coated with type I collagen, and cultured for 4 hours. […]

[2] = tested on: normal human corneal epithelial cell (HCEC-2); test: scratch assay of corneal epithelial cells with compound solution or conditioned medium from keratocytes; format: cell-based; conditions: HCEC-2 scratch wound, conditioned medium from normal human keratocytes cultured 24 hours with compound, 20 hours culture
Description: The influence of the compound A on corneal epithelial cells via a keratocyte was evaluated. As the corneal epithelial cell and the keratocyte used in the evaluation system, a normal human corneal epithelial cell (HCEC-2, Kurabo Industries Ltd.) and a normal human keratocyte (EK, Cosmo Bio Co., Ltd.) were used.
Keratocytes (2×10^5 cells/mL) suspended in a fibroblast culture medium (Fibroblast Medium, Cosmo Bio Co., Ltd.) were seeded at 1 mL/well in a 12 well plate coated with poly-L-lysine, and cultured overnight. After removal of the culture medium and washing with normal human corneal epithelial cell basal medium (OcuLife BM, Kurabo Industries Ltd.), the compound solution was added. As the compound solution, a solution was used that was prepared by mixing dimethyl sulfoxide or the compound A dissolved in dimethyl sulfoxide with OcuLife BM (the final concentration of dimethyl sulfoxide was 0.1% [v/v]). After completion of the culture for 24 hours, the conditioned medium was collected.
Corneal epithelial cells (6×10^5 cells/mL) suspended in OcuLife BM were seeded at 100 μL/well in ImageLock 96-well Plate (Sartorius AG) coated with type I collagen, and cultured for 4 hours. Each well was scratched using a Wound Maker (trademark) tool (Sartorius AG) to prepare an initial scratch wound area in which no cells were present. […]

SD rat [3] = test: rat corneal epithelial defect (corneal wound) model; format: in vivo; conditions: for wound area healing rate on Day 2: SD rat corneal epithelial defect, 1% ointment to the eye four times a day, n=5; for healing of the corneal defect wound as compared with the vehicle administration group: n=5, t-test (compound A p<0.05; crisaborole n.s.)
Excerpt: Using a male rat (SD rat), a corneal wound was induced as follows. On the day before the start of the test, rats were grouped using a stratified random sampling method based on the body weight. Under isoflurane anesthesia, each conventional rat was anesthetized with a Benoxil ophthalmic solution to the surface of the eye, and then a nonwoven fabric (3 mm in diameter) with 1-heptanol immersed was placed on the central portion of the cornea and allowed to stand for 30 seconds. Thereafter, the surface of the eye was washed with physiological saline, and the corneal epithelium was scratched with a cotton swab and thus carefully peeled to prepare a corneal defect. A 0.5% methylene blue solution was instilled into the eye, and the corneal epithelial defect portion was washed with physiological saline and then photographed, and then an ointment preparation (base alone, 1% compound A-containing ointment, or 1% crisaborole-containing ointment) as a test substance was administered to the eye four times a day (around 8:00, 11:00, 14:00, and 17:00) for three days. After the day following the preparation of the defect wound, photographing of the defect portion and administration of the test substance were repeated.

db/db mice = test: wound model using diabetic (db/db) mouse, circular defect wounds of the back skin; format: in vivo; conditions: for healing promoting action as compared with the vehicle administration group (area of defect portions): ointment applied to defect wounds once daily for 10 days, compound A groups 1%, 2%, p<0.01 for compound A, N=6; for course of the area of the defect portions (start of healing): ointment once daily for 10 days, compound A 1%, 2% groups, crisaborole increase on second day in the 2% group, vehicle decreased from the fourth day
Description: The compound A or crisaborole was administered to db/db mice, which are spontaneously diabetic models, for 10 days, and the influence on wound healing was examined by analyzing the wound area.
Before start of the test, the db/db mice were grouped using the HbA1c blood concentration as an index, and shaved from the back to the abdomen. On the test start day, the back skin was punched using a biopsy punch (φ6 mm) under isoflurane anesthesia, and thus two circular defect wounds were prepared. The defect portions were photographed, and then an ointment preparation (vehicle [30% medium chain fatty acid triglyceride-containing white petrolatum], compound A or crisaborole) as a test substance was applied to the defect portions and covered with a dressing (Tegaderm, 3M). After the day following the preparation of the defect wounds, removal of the dressing, photographing of the defect portions (once every two days), administration of the test substance, and covering with a dressing were repeated (once daily for 10 days).

SD rat [4] = test: rat oral ulcer model induced by cauterization; format: in vivo; conditions: for oral ulcer area on Day 8: 1 mass % ointment 0.05 mL twice a day for 5 days from Day 3, Mean±S.E., n=6, vehicle 20.4±2.3 mm^2; for reduction in the oral ulcer area as compared with the vehicle administration group: 1 mass % ointment twice a day for 5 days, Day 8, n=6, t-test (compound A p<0.05; crisaborole n.s.)
Excerpt: Using a male rat (SD rat), an oral ulcer was initiated by cauterization as follows. That is, conventional rats were anesthetized by isoflurane inhalation anesthesia and then placed on their back, and while the upper jaw and the lower jaw of each rat were opened using a rib retractor to take a view, a monopolar having a tip diameter of […] was applied to the central portion of the left oral mucosa, and the portion was cauterized in a circular shape (diameter: 3 to 4 mm) for about 10 to 20 seconds at a set output of 20 to induce an oral ulcer. After the cauterization, the rat was returned to a breeding cage and naturally awakened.
The day of oral ulcer induction was defined as the start day (Day 0). Two days after the oral ulcer induction (Day 2), the rats were grouped using a stratified random sampling method based on the body weight. From 3 days after the initiation of an oral ulcer by cauterization (Day 3), an ointment preparation containing 1 mass % of a test substance or an ointment base alone was orally administered at a dose of 0.05 mL twice a day (around 8:00 and 16:00) for 5 days. (As the compound A 1%, Moizerto (registered trademark) ointment 1% was used. The crisaborole 1% was prepared using a formula in which Moizerto (registered trademark) ointment 1% as the compound A was replaced by crisaborole.) Specifically, a rat anesthetized by isoflurane inhalation was laid down in a left side position, and the ointment preparation was administered to the left cheek where an ulcer was prepared in a state where the oral cavity was opened using tweezers or a rib retractor.

scratch model = conditions: NPL 4; cited from earlier work
human keratinocytes = conditions: NPL 4; cited from earlier work
[5] = SD rat, 1% ointment four times a day

| Compound | migration of the epidermic cells (wound confluence) [1] | migration of the corneal epithelial cells (wound confluence) [2] | wound area healing rate on Day 2 (SD rat [3]) | healing of the corneal defect wound as compared with the vehicle administration group (SD rat [3]; [5]) | time after preparation of the defect wound from which the defect portion area rapidly decreased (SD rat [3]; SD rat, 1% ointment four times a day, vehicle apparent healing started on Day 2) | healing promoting action as compared with the vehicle administration group (area of defect portions) (db/db mice) | course of the area of the defect portions (start of healing) (db/db mice) | oral ulcer area on Day 8 (SD rat [4]) | reduction in the oral ulcer area as compared with the vehicle administration group (SD rat [4]) | re-epithelialization in a scratch model after treatment (scratch model) | growth of human keratinocytes (human keratinocytes) |
| --- | --- | --- | --- | --- | --- | --- | --- | --- | --- | --- | --- |
| CCOc1ccccc1C(=O)NCc1coc(-c2ccc(OC(F)F)c(OC(C)C)c2)n1 [compound A, N-({2-[4-(difluoromethoxy)-3-(propan-2-yloxy)phenyl]-1,3-oxazol-4-yl}methyl)-2-ethoxybenzamide] | promoted migration of the epidermic cells via the skin fibroblasts | promoted migration of the corneal epithelial cells via the keratocytes | 100% | a significant healing promoting action was confirmed | 8 h | a healing promoting action was confirmed | rapidly decreased from the second day | 13.1±1.3 mm^2 | significant reduction in the oral ulcer area was observed |  |  |
| CS(=O)(=O)Nc1ccc(C(=O)O[C@@H](Cc2c(Cl)c[n+]([O-])cc2Cl)c2ccc(OC(F)F)c(OCC3CC3)c2)cc1OCC1CC1 [CHF6001] |  |  |  |  |  |  |  |  |  | re-epithelialization is decreased | suppresses growth of human keratinocytes |
| N#Cc1ccc(Oc2ccc3c(c2)COB3O)cc1 [crisaborole, reference compound] |  |  | 81.6% | healing was not completed |  | a significant healing promoting action was not observed | increased on the second day (in the 2% group) and then gradually decreased from the fourth day | 18.3±2.7 mm^2 | significant reduction in the oral ulcer area was not observed |  |  |
